Measurements taken from patent US10329270B2, “Heteroaryl compounds as BTK inhibitors and uses thereof” (Merck Patent GmbH, priority 2013, dated 2019).

Each compound was assayed against T1, full-length human BTK (Homo sapiens, UniProt Q06187) (assay: Assay A: BTK IC50 Enzyme Assay (microfluidic off-chip mobility shift kinase assay)). Conditions: full-length human BTK, kinKDR peptide substrate, incubated 90 min at 27 C; read-out: Assay A (Time Dependent BTK Enzyme Assay IC50).
T1 construct: 2.5× stocks of full-length human BTK (08-080); purchased CarnaBio USA, Inc., Natick, Mass; 08-080
Assay type: biochemical
Summary of the method: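 Off-chip microfluidic mobility shift assay with full-length human BTK; phosphorylated and unphosphorylated peptide substrate were separated by charge/mass on a LabChip 3000.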

T1 sequence (Q06187 whole entry): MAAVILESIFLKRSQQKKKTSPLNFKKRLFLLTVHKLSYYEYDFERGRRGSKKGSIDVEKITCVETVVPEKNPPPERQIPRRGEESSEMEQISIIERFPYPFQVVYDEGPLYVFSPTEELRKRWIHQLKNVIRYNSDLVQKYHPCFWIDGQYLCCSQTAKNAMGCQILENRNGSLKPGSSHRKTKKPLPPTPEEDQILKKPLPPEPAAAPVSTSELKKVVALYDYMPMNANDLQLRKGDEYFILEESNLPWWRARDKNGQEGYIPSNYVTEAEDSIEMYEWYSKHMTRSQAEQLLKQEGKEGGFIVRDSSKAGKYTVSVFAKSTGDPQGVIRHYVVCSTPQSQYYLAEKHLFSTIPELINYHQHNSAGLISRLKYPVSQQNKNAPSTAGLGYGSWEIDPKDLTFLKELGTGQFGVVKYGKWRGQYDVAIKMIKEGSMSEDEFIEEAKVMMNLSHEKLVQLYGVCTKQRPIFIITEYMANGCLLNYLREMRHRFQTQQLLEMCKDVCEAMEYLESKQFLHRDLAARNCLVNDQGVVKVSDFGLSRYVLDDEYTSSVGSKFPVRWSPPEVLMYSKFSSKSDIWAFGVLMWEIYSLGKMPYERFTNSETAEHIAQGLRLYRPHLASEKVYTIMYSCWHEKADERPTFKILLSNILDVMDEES

Row | Compound | IC50
1 | CN(C)C/C=C/C(=O)N[C@H]1C[C@@H](Nc2ncc(C(N)=O)c(N)n2)C1 [Compound 162, 4-Amino-2-[3-(4-dimethylamino-but-2-enoylamino)-cyclobutylamino]-pyrimidine-5-carboxylic acid amide] | > 5000 nM
2 | C=CC(=O)N[C@H]1CCN(c2nc(Cl)ccc2C(N)=O)C1 [Compound 163, 2-((S)-3-Acryloylamino-pyrrolidin-1-yl)-6-chloro-nicotinamide] | > 5000 nM
3 | CN(C)C/C=C/C(=O)N1CCC(Nc2ncc(C(N)=O)c(N)n2)C1 (stereo not shown) [Compound 138, 4-Amino-2-[1-((E)-4-dimethylamino-but-2-enoyl)-pyrrolidin-3-ylamino]-pyrimidine-5-carboxylic acid amide] | > 5000 nM
4 | C=CC(=O)NC1CCCN(c2ncc(C(N)=O)c(Oc3ccc(Oc4ccccc4)cc3)n2)C1 (stereo not shown) [Compound 204, 2-(3-acrylamidopiperidin-1-yl)-4-(4-phenoxyphenoxy)pyrimidine-5-carboxamide] | 1000 to 5000 nM
5 | C=CC(=O)N1CCC(c2ccc(C(N)=O)c(Oc3ccc(NC(=O)c4ccccc4)cc3)n2)C1 (stereo not shown) [Compound 99, 6-(1-acryloylpyrrolidin-3-yl)-2-(4-benzamidophenoxy)nicotinamide] | 1000 to 5000 nM
6 | C/C=C(\C#N)C(=O)N1C[C@@H]2C[C@H]1CN2c1ncc(C(N)=O)c(Oc2ccc(Oc3ccccc3)cc2)n1 [Compound 211, 2-((1S,4S)-5-((E)-2-cyanobut-2-enoyl)-2,5-diazabicyclo[2.2.1]heptan-2-yl)-4-(4-phenoxyphenoxy)pyrimidine-5-carboxamide] | 1000 to 5000 nM
7 | C=CC(=O)N1C[C@@H]2C[C@H]1CN2c1cnc(C(N)=O)c(Oc2ccc(Oc3ccccc3)cc2)n1 [Compound 135, 5-((1S,4S)-5-Acryloyl-2,5-diaza-bicyclo[2.2.1]hept-2-yl)-3-(4-phenoxy-phenoxy)-pyrazine-2-carboxylic acid amide] | 1000 to 5000 nM
8 | N#CN1CCC(c2cnc(Oc3ccc(Oc4ccccc4)cc3)c(C(N)=O)c2)CC1 [Compound 244, 5-(1-cyanopiperidin-4-yl)-2-(4-phenoxyphenoxy)pyridine-3-carboxamide] | 1000 to 5000 nM
9 | N#CNC(=O)N1CCN(c2ccc(C(N)=O)c(Oc3ccc(Oc4ccccc4)cc3)n2)CC1 [Compound 237, 4-(5-carbamoyl-6-(4-phenoxyphenoxy)pyridin-2-yl)-N-cyanopiperazine-1-carboxamide] | 1000 to 5000 nM
10 | C/C=C/C(=O)N1CC2CN(c3cnc(Oc4ccc(Oc5ccccc5)cc4)c(C(N)=O)c3)CC2C1 (stereo not shown) [Compound 217, 5-[5-((E)-But-2-enoyl)-hexahydro-pyrrolo[3,4-c]pyrrol-2-yl]-2-(4-phenoxy-phenoxy)-nicotinamide] | > 5000 nM
11 | C=CC(=O)N[C@H]1CCN(c2ccc(C(N)=O)c(NC3CCN(C)CC3)n2)C1 [Compound 62, 6-((S)-3-Acryloylamino-pyrrolidin-1-yl)-2-(1-methyl-piperidin-4-ylamino)-nicotinamide] | > 5000 nM
12 | C=CC(=O)N[C@H]1CCN(c2cc(Oc3ccc(C(=O)Nc4ccccc4)cc3)c(C(N)=O)cn2)C1 [Compound 116, (S)-6-(3-acrylamidopyrrolidin-1-yl)-4-(4-(phenylcarbamoyl)phenoxy)nicotinamide] | 1000 to 5000 nM

Other lines, results leading:

Row | IC50 | Compound
13 | < 100 nM | C=CC(=O)N1CC=C(c2ccc(C(N)=O)c(Nc3ccc(CCN4CCCC4)cc3)n2)CC1 [Compound 17, 1′-Acryloyl-6-[4-(2-pyrrolidin-1-yl-ethyl)-phenylamino]-1′,2′,3′,6′-tetrahydro-[2,4′]bipyridinyl-5-carboxylic acid amide]
14 | 1000 to 5000 nM | N#CN1CCCC(Nc2ncc(C(N)=O)c(Oc3ccc(Oc4ccccc4)cc3)n2)C1 (stereo not shown) [Compound 239, 2-[(1-cyanopiperidin-3-yl)amino]-4-(4-phenoxyphenoxy)pyrimidine-5-carboxamide]
15 | < 100 nM | C=CC(=O)N[C@H]1CCN(c2nc(Nc3ccc(F)c(C)c3)ccc2C(N)=O)C1 [Compound 157, 2-((S)-3-Acryloylamino-pyrrolidin-1-yl)-6-(4-fluoro-3-methyl-phenylamino)-nicotinamide]
16 | 100 to 1000 nM | C=CC(=O)NC1CCN(c2cnc(Oc3ccc(Oc4ccccc4)cc3)c(C(N)=O)c2)C1 (stereo not shown) [Compound 196, 5-(3-Acryloylamino-pyrrolidin-1-yl)-2-(4-phenoxy-phenoxy)-nicotinamide]
17 | < 100 nM | C=CC(=O)N1CCC(c2cc(Oc3ccc(Oc4ccc(C)cc4)cc3)c(C(N)=O)cn2)C1 (stereo not shown) [Compound 110, 6-(1-acryloylpyrrolidin-3-yl)-4-(4-(p-tolyloxy)phenoxy)nicotinamide]
18 | 1000 to 5000 nM | C/C=C/C(=O)N1CCC(Nc2cnc(Oc3ccc(Oc4ccccc4)cc3)c(C(N)=O)c2)C1 (stereo not shown) [Compound 202, 5-[1-((E)-But-2-enoyl)-pyrrolidin-3-ylamino]-2-(4-phenoxy-phenoxy)-nicotinamide]
19 | < 100 nM | C=CC(=O)N[C@@H]1CCCN(c2nc(Nc3ccc(N4CCN(C)CC4)cc3)c(C(N)=O)cc2F)C1 [Compound 226, (R)-3-Acryloylamino-3′-fluoro-6′-[4-(4-methyl-piperazin-1-yl)-phenylamino]-3,4,5,6-tetrahydro-2H-[1,2′]bipyridinyl-5′-carboxylic acid amide]
20 | < 100 nM | C=CC(=O)N1CCC(c2cc(Oc3ccc(OCc4ccccc4)cc3)c(C(N)=O)cn2)C1 (stereo not shown) [Compound 111, 6-(1-acryloylpyrrolidin-3-yl)-4-(4-(benzyloxy)phenoxy)nicotinamide]
21 | 100 to 1000 nM | C=CC(=O)N[C@H]1CCN(c2cc(Oc3ccc(Oc4cccc(C#N)c4)cc3)c(C(N)=O)cn2)C1 [Compound 113, (S)-6-(3-acrylamidopyrrolidin-1-yl)-4-(4-(3-cyanophenoxy)phenoxy)nicotinamide]
22 | < 100 nM | C=CC(=O)N[C@H]1CCN(c2ccc(C(N)=O)c(Oc3ccc(Oc4cccc(C#N)c4)cc3)n2)C1 [Compound 79, (S)-6-(3-acrylamidopyrrolidin-1-yl)-2-(4-(3-cyanophenoxy)phenoxy)nicotinamide]
23 | 100 to 1000 nM | N#CN1CCC[C@@H](c2cnc(Oc3ccc(Oc4ccccc4)cc3)c(C(N)=O)c2)C1 [Compound 240, (S)-5-(1-cyanopiperidin-3-yl)-2-(4-phenoxyphenoxy)nicotinamide]
24 | < 100 nM | C=CC(=O)N1CCC(Nc2cnc(Oc3ccc(Oc4cccc(F)c4)cc3)c(C(N)=O)c2)CC1 [Compound 228, 5-(1-Acryloyl-piperidin-4-ylamino)-2-[4-(3-fluoro-phenoxy)-phenoxy]-nicotinamide]
25 | < 100 nM | C=CC(=O)N[C@H]1CCN(c2ccc(C(N)=O)c(Nc3cccc(C)c3)n2)C1 [Compound 57, 6-((S)-3-Acryloylamino-pyrrolidin-1-yl)-2-m-tolylamino-nicotinamide]
26 | 100 to 1000 nM | C=CC(=O)N1CCC(Nc2ncc(C(N)=O)c(Oc3ccc(Oc4ccccc4)cc3)n2)CC12CCC2 (stereo not shown) [Compound 175, 2-(5-Acryloyl-5-aza-spiro[3.5]non-8-ylamino)-4-(4-phenoxy-phenoxy)-pyrimidine-5-carboxylic acid amide]
27 | 100 to 1000 nM | C=CC(=O)N1CCCN(c2ncc(C(N)=O)c(Oc3ccc(Oc4ccccc4)cc3)n2)CC1 [Compound 206, 2-(4-acryloyl-1,4-diazepan-1-yl)-4-(4-phenoxyphenoxy)pyrimidine-5-carboxamide]
28 | 1000 to 5000 nM | C/C=C/C(=O)N1CCC(Nc2cnc(Oc3ccc(Oc4cccc(F)c4)cc3)c(C(N)=O)c2)C1 (stereo not shown) [Compound 229, 5-[1-((E)-But-2-enoyl)-pyrrolidin-3-ylamino]-2-[4-(3-fluoro-phenoxy)-phenoxy]-nicotinamide]
29 | < 100 nM | CN(C)C/C=C/C(=O)N1CCC(c2ccc(C(N)=O)c(Oc3ccc(Oc4ccccc4)cc3)n2)CC1 [Compound 76, 1′-((E)-4-Dimethylamino-but-2-enoyl)-6-(4-phenoxy-phenoxy)-1′,2′,3′,4′,5′,6′-hexahydro-[2,4′]bipyridinyl-5-carboxylic acid amid]
30 | < 100 nM | C=CC(=O)N(C)[C@H]1CCN(c2ccc(C(N)=O)c(Oc3ccc(Oc4ccccc4)cc3)n2)C1 [Compound 107, 6-[(S)-3-(Acryloyl-methyl-amino)-pyrrolidin-1-yl]-2-(4-phenoxy-phenoxy)-nicotinamide]
31 | < 100 nM | C=CC(=O)N[C@H]1CCN(c2ccc(C(N)=O)c(Oc3ccc(Oc4cccc(F)c4)cc3)n2)C1 [Compound 73, (S)-6-(3-acrylamidopyrrolidin-1-yl)-2-(4-(3-fluorophenoxy)phenoxy)nicotinamide]
32 | 100 to 1000 nM | C=CC(=O)N1CCC(c2cnc(Oc3ccc(Oc4ccccc4)cc3)c(C(N)=O)c2)CC1 [Compound 127, 1′-Acryloyl-6-(4-phenoxy-phenoxy)-1′,2′,3′,4′,5′,6′-hexahydro-[3,4′]bipyridinyl-5-carboxylic acid amide]
33 | < 100 nM | C=CC(=O)N1CCC(c2ccc(C(N)=O)c(Nc3cccnc3)n2)CC1 [Compound 53, 1′-Acryloyl-6-(pyridin-3-ylamino)-1′,2′,3′,4′,5′,6′-hexahydro-[2,4′]bipyridinyl-5-carboxylic acid amide]

These compounds were tested on PBMC (assay: Assay B: Time Dependent PMBC IC50 Assay). Conditions: not given.
Assay type: cell-based
Experimental: Assay B: Time Dependent PMBC IC50 Assay
Compounds described by embodiments of the present invention were assayed using a time dependent PMBC assay. The data from the same is recorded in Table 2 within the column labeled: “Time Dependent PBMC Assay IC50.” These IC50 values are reported in ranges wherein: I<1 uM and II>1 uM.

Row | Compound | IC50
34 | C=CC(=O)N1C2CCC1CN(c1ccc(C(N)=O)c(Oc3ccc(Oc4ccccc4)cc3)n1)C2 [Compound 68, 6-(8-Acryloyl-3,8-diaza-bicyclo[3.2.1]oct-3-yl)-2-(4-phenoxy-phenoxy)-nicotinamide] | < 100 nM
35 | C=CC(=O)N1CC=C(c2ccc(C(N)=O)c(Nc3ccc(CCN4CCCC4)cc3)n2)CC1 [Compound 17, 1′-Acryloyl-6-[4-(2-pyrrolidin-1-yl-ethyl)-phenylamino]-1′,2′,3′,6′-tetrahydro-[2,4′]bipyridinyl-5-carboxylic acid amide] | < 100 nM
36 | C=CC(=O)N1C[C@@H]2C[C@H]1CN2c1ccc(C(N)=O)c(Oc2ccc(Oc3ccccc3)cc2)n1 [Compound 23, 6-((1S,4S)-5-acryloyl-2,5-diazabicyclo[2.2.1]heptan-2-yl)-2-(4-phenoxyphenoxy)nicotinamide] | < 100 nM
37 | C=CC(=O)N1CC[C@@H](Nc2ccc(C(N)=O)c(Oc3ccc(Oc4ccccc4)cc3)n2)C1 [Compound 72, 6-((R)-1-Acryloyl-pyrrolidin-3-ylamino)-2-(4-phenoxy-phenoxy)-nicotinamide] | < 100 nM
